What was measured:
in vitro = conditions: dog, MDCK
[1] = human, hepatocytes, 4 h, 1 µM
physchem = conditions: octanol/water
[2] = target: Branched-chain alpha-ketoacid dehydrogenase kinase (Homo sapiens) (UniProt O14874); assay: Potency index, ratio of PF-07208254 IC50 to test compound IC50 for inhibition of human BDK using LBD-Tev-PhosphoPep/Lipoyl as substrate preincubated for 15 mins followed by substrate/ATP addition and measured after 90 mins by TR-FRET assay
[3] = target: Branched-chain alpha-ketoacid dehydrogenase kinase (Homo sapiens) (UniProt O14874); assay: Potency index, ratio of PF-07208254 IC50 to test compound IC50 for inhibition of BDK in human skeletal myocyte using BCKDHA as substrate assessed as inhibition of substrate phosphorylation incubated for 60 mins by AlphaLISA surefire ultra assay
[4] = Retention time of compound in phosphate buffer at pH 7.4 measured after approximately 150 mins by HPLC-UV analysis; type: physicochemical
[5] = Drug degradation in phosphate/D2O buffer at pH 7.6 assessed as half-life by H1-NMR analysis; type: ADME
[6] = target: UDP-glucuronosyltransferase 1A3 (Homo sapiens, UniProt P35503); assay: Drug metabolism assessed as recombinant human UGT1A3-mediated (2S,3S,4S,5R)-6-((6-fluoro-3-(2,4,5-trifluoro-3-methoxyphenyl)benzo[b]thiophene-2-carbonyl)oxy)-3,4,5-trihydroxytetrahydro-2H-pyran-2-carboxylic acid metabolite formation at 1 uM; type: ADME; conditions: recombinant enzyme
Chain of UDP-glucuronosyltransferase 1A3 (P35503 whole entry): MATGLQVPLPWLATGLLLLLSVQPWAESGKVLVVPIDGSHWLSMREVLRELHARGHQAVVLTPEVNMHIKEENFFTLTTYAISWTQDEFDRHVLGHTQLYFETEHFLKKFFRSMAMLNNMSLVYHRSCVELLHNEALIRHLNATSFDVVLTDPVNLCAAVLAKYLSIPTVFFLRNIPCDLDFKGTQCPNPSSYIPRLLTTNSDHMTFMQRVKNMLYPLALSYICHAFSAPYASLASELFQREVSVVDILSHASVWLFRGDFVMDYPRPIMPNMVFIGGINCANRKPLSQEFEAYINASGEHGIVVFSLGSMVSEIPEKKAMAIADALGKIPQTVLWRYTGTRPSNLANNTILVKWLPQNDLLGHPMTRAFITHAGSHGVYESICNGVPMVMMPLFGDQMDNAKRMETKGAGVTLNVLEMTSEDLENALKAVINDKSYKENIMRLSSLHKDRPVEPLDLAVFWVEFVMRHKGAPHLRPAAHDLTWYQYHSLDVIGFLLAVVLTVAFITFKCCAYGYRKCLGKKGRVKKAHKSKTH

Cytochrome P450 2C9 = Cytochrome P450 2C9 (Homo sapiens, UniProt P11712); assay: Reversible inhibition of human CYP2C9-mediated diclofenac-4'-hydroxylation in human liver microsomes using diclofenac as substrate in presence of NADPH; type: ADME, Microsome
Cytochrome P450 1A2 = Cytochrome P450 1A2 (Homo sapiens, UniProt P05177); assay: Reversible inhibition of human CYP1A2-mediated phenacetin-O-dealkylation in human liver microsomes using phenacetin as substrate in presence of NADPH; type: ADME, Microsome
Cytochrome P450 3A4 [7] = target: T1, Cytochrome P450 3A4 (Homo sapiens, UniProt P08684); assay: Reversible inhibition of human CYP3A4-mediated testosterone-6beta-hydroxylation in human liver microsomes using testosterone as substrate in presence of NADPH; type: ADME, Microsome
T1 sequence (P08684 whole entry): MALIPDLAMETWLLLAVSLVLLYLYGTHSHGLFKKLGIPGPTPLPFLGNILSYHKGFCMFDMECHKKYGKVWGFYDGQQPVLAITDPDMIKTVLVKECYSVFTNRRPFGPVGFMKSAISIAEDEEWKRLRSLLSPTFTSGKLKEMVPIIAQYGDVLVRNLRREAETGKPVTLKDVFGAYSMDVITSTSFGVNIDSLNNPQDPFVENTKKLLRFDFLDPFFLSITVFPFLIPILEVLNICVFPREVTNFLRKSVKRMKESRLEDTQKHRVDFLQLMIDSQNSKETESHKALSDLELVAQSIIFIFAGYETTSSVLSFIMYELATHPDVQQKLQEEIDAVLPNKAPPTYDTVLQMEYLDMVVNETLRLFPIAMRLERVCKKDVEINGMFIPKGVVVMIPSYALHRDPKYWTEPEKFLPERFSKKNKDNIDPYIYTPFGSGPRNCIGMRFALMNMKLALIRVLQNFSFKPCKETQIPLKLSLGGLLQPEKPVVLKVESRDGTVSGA

[8] = target: Multidrug and toxin extrusion protein 2 (Homo sapiens, UniProt Q86VL8); assay: Inhibition of human MATE2K expressed in HEK293 cells using [14C]metformin as substrate preincubated for 30 mins followed by substrate addition and measured after 1 to 4 mins; type: cell-based
Chain of Multidrug and toxin extrusion protein 2 (Q86VL8 whole entry): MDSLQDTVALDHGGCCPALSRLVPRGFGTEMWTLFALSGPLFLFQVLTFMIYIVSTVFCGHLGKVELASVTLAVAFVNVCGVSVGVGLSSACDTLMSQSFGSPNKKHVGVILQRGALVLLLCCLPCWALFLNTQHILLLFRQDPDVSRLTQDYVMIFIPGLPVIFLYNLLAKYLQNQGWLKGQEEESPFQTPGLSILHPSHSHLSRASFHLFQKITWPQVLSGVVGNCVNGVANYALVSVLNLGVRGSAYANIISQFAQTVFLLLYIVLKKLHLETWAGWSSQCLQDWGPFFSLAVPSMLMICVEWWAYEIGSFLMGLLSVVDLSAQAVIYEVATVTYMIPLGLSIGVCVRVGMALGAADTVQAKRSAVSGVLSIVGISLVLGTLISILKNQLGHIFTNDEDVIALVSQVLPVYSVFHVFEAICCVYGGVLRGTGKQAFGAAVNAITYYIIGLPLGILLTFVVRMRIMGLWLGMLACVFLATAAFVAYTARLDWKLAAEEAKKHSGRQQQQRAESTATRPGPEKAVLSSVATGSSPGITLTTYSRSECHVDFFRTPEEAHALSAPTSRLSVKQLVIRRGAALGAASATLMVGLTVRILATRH

Cytochrome P450 = assay: Drug metabolism in human hepatocytes assessed as CYP450-catalyzed o-demethylation mediated 6-fluoro-3-(2,4,5-trifluoro-3-hydroxyphenyl)benzo[b]thiophene-2-carboxylic acid metabolite formation by mass spectrometric analysis; type: ADME, cell-based, Hepatocyte
[9] = target: ATP-dependent translocase ABCB1 (Homo sapiens, UniProt P08183); assay: Inhibition of human MDR1 expressed in HEK293 cell vesicles using N-methylquinidine as substrate preincubated for 30 mins followed by substrate addition and measured after 1 to 4 mins; type: subcellular, Vesicle
[10] = target: Solute carrier family 22 member 6 (Homo sapiens, UniProt Q4U2R8); assay: Inhibition of human OAT1 expressed in HEK293 cells using p-aminohippuric acid as substrate preincubated for 30 mins followed by substrate addition and measured after 1 to 4 mins; type: cell-based
Cytochrome P450 3A4 [11] = target: T1, Cytochrome P450 3A4; assay: Reversible inhibition of human CYP3A4-mediated midazolam-1'-hydroxylation in human liver microsomes using midazolam as substrate in presence of NADPH; type: ADME, Microsome
[12] = target: Solute carrier family 22 member 1 (Homo sapiens, UniProt O15245); assay: Inhibition of human OCT1 expressed in HEK293 cells using [14C]metformin as substrate preincubated for 30 mins followed by substrate addition and measured after 1 to 4 mins; type: cell-based
Chain of Solute carrier family 22 member 1 (O15245 whole entry): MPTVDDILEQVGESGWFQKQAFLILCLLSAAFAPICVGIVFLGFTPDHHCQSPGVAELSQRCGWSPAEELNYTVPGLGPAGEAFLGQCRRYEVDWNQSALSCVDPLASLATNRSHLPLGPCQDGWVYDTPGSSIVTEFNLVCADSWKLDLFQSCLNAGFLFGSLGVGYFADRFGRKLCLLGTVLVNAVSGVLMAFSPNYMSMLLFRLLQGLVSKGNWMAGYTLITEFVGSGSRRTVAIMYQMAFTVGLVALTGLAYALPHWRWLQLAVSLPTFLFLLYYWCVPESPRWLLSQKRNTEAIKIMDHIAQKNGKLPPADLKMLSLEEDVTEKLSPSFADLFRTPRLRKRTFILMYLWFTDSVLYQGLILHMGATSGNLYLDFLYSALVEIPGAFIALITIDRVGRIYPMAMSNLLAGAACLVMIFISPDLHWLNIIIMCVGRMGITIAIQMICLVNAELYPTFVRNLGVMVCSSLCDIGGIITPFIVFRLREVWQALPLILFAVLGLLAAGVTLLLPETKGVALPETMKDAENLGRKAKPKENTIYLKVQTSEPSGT

[13] = target: UDP-glucuronosyltransferase 1A1 (Homo sapiens, UniProt P22309); assay: Drug metabolism assessed as recombinant human UGT1A1-mediated (2S,3S,4S,5R)-6-((6-fluoro-3-(2,4,5-trifluoro-3-methoxyphenyl)benzo[b]thiophene-2-carbonyl)oxy)-3,4,5-trihydroxytetrahydro-2H-pyran-2-carboxylic acid metabolite formation at 1 uM; type: ADME; conditions: recombinant enzyme
Cytochrome P450 2D6 = Cytochrome P450 2D6 (Homo sapiens, UniProt P10635); assay: Reversible inhibition of human CYP2D6-mediated dextromethorphan-O-demethylation in human liver microsomes using dextromethorphan as substrate in presence of NADPH; type: ADME, Microsome
[14] = target: UDP-glucuronosyltransferase 1A9 (Homo sapiens, UniProt O60656); assay: Drug metabolism assessed as recombinant human UGT1A9-mediated (2S,3S,4S,5R)-6-((6-fluoro-3-(2,4,5-trifluoro-3-methoxyphenyl)benzo[b]thiophene-2-carbonyl)oxy)-3,4,5-trihydroxytetrahydro-2H-pyran-2-carboxylic acid metabolite formation at 1 uM; type: ADME; conditions: recombinant enzyme
Chain of UDP-glucuronosyltransferase 1A9 (O60656 whole entry, the tested form may be a part): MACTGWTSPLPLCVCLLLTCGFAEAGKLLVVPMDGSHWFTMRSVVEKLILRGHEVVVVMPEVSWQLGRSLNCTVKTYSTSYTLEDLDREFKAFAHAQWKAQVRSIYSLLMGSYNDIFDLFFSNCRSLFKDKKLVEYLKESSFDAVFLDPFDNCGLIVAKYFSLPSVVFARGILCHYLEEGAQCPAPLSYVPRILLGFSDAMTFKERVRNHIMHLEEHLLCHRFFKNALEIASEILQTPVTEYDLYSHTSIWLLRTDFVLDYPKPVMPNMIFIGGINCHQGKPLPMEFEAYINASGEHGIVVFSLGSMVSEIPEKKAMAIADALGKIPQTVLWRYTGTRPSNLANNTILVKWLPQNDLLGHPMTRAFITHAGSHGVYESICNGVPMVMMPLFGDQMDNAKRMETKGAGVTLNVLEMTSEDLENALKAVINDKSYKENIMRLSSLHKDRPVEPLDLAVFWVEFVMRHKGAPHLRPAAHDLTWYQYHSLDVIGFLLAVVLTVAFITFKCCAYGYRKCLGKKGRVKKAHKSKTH

[15] = target: Branched-chain alpha-ketoacid dehydrogenase kinase (Mus musculus, UniProt O55028); assay: Inhibition of mouse BDK using LBD-Tev-PhosphoPep/Lipoyl as substrate preincubated for 15 mins followed by substrate/ATP addition and measured after 90 mins by TR-FRET assay
[16] = target: Solute carrier family 22 member 2 (Homo sapiens, UniProt O15244); assay: Inhibition of human OCT2 expressed in HEK293 cells using [14C]metformin as substrate preincubated for 30 mins followed by substrate addition and measured after 1 to 4 mins; type: cell-based
Chain of Solute carrier family 22 member 2 (O15244 whole entry): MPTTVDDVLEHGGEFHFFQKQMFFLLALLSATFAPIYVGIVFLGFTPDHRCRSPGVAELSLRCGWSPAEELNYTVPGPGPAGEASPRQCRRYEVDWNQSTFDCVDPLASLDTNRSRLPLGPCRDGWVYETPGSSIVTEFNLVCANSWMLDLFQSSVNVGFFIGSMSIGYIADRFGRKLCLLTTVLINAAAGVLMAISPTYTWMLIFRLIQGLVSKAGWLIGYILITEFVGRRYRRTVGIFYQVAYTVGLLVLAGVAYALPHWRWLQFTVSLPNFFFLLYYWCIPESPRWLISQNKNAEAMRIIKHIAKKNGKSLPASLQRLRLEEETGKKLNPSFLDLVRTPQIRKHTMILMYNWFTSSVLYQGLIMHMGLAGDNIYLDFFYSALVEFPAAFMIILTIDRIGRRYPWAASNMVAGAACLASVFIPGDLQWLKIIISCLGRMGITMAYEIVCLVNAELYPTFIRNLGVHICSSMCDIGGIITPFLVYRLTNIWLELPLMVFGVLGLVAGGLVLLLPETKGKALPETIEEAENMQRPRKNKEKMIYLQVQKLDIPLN

Cytochrome P450 2B6 = Cytochrome P450 2B6 (Homo sapiens, UniProt P20813); assay: Reversible inhibition of human CYP2B6-mediated bupropion hydroxylation in human liver microsomes using bupropion as substrate in presence of NADPH; type: ADME, Microsome
Cytochrome P450 2C8 = Cytochrome P450 2C8 (Homo sapiens, UniProt P10632); assay: Reversible inhibition of human CYP2C8-mediated amodiaquine N-dealkylation in human liver microsomes using amodiaquine as substrate in presence of NADPH; type: ADME, Microsome
Chain of Cytochrome P450 2C8 (P10632 whole entry): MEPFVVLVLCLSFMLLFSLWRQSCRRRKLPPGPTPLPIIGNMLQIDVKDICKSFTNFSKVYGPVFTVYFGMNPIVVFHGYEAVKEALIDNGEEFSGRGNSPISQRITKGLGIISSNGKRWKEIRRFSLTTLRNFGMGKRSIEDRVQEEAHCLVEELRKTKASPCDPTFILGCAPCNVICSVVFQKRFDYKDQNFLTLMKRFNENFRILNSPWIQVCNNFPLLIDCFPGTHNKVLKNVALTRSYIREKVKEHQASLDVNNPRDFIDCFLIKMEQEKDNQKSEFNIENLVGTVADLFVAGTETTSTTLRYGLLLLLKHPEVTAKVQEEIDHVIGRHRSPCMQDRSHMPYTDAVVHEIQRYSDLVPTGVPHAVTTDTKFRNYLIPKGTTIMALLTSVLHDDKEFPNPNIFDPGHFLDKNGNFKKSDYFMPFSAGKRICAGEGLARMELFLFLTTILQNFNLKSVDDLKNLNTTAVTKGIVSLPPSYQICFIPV

Cytochrome P450 2C19 = Cytochrome P450 2C19 (Homo sapiens, UniProt P33261); assay: Reversible inhibition of human CYP2C19-mediated S-mephenytoin-4'-hydroxylation in human liver microsomes using S-mephenytoin as substrate in presence of NADPH; type: ADME, Microsome
Chain of Cytochrome P450 2C19 (P33261 whole entry): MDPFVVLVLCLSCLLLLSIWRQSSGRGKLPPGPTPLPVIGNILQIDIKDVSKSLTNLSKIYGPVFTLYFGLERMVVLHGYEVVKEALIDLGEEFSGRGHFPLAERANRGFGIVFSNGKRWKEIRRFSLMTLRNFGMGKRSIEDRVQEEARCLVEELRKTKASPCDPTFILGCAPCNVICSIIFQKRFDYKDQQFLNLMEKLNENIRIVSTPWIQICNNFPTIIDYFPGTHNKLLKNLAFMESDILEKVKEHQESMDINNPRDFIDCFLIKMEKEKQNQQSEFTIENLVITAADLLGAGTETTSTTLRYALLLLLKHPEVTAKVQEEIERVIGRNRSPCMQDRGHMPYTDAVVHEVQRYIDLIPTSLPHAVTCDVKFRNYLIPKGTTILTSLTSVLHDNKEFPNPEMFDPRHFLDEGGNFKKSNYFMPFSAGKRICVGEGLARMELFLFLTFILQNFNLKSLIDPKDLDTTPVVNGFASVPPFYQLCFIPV

[17] = target: Organic anion transporter 3 (Homo sapiens, UniProt Q8TCC7); assay: Inhibition of human OAT3 expressed in HEK293 cells using estrone-3-sulfate as substrate preincubated for 30 mins followed by substrate addition and measured after 1 to 4 mins; type: cell-based
[18] = target: UDP-glucuronosyltransferase 2B15 (Homo sapiens, UniProt P54855); assay: Drug metabolism assessed as recombinant human UGT2B15-mediated (2S,3S,4S,5R)-6-((6-fluoro-3-(2,4,5-trifluoro-3-methoxyphenyl)benzo[b]thiophene-2-carbonyl)oxy)-3,4,5-trihydroxytetrahydro-2H-pyran-2-carboxylic acid metabolite formation at 1 uM; type: ADME; conditions: recombinant enzyme
[19] = target: Solute carrier organic anion transporter family member 1B3 (Homo sapiens, UniProt Q9NPD5); assay: Inhibition of human OATP1B3 expressed in HEK293 cells using rosuvastatin as substrate preincubated for 30 mins followed by substrate addition and measured after 1 to 4 mins; type: cell-based
[20] = target: UDP-glucuronosyltransferase 2B4 (Homo sapiens, UniProt P06133); assay: Drug metabolism assessed as recombinant human UGT2B4-mediated (2S,3S,4S,5R)-6-((6-fluoro-3-(2,4,5-trifluoro-3-methoxyphenyl)benzo[b]thiophene-2-carbonyl)oxy)-3,4,5-trihydroxytetrahydro-2H-pyran-2-carboxylic acid metabolite formation at 1 uM; type: ADME; conditions: recombinant enzyme
[21] = target: Multidrug and toxin extrusion protein 1 (Homo sapiens, UniProt Q96FL8); assay: Inhibition of human MATE1 expressed in HEK293 cells using [14C]metformin as substrate preincubated for 30 mins followed by substrate addition and measured after 1 to 4 mins; type: cell-based
[22] = target: Solute carrier organic anion transporter family member 1B1 (Homo sapiens, UniProt Q9Y6L6); assay: Inhibition of human OATP1B1 expressed in HEK293 cells using rosuvastatin as substrate preincubated for 30 mins followed by substrate addition and measured after 1 to 4 mins; type: cell-based
Chain of Solute carrier organic anion transporter family member 1B1 (Q9Y6L6 whole entry): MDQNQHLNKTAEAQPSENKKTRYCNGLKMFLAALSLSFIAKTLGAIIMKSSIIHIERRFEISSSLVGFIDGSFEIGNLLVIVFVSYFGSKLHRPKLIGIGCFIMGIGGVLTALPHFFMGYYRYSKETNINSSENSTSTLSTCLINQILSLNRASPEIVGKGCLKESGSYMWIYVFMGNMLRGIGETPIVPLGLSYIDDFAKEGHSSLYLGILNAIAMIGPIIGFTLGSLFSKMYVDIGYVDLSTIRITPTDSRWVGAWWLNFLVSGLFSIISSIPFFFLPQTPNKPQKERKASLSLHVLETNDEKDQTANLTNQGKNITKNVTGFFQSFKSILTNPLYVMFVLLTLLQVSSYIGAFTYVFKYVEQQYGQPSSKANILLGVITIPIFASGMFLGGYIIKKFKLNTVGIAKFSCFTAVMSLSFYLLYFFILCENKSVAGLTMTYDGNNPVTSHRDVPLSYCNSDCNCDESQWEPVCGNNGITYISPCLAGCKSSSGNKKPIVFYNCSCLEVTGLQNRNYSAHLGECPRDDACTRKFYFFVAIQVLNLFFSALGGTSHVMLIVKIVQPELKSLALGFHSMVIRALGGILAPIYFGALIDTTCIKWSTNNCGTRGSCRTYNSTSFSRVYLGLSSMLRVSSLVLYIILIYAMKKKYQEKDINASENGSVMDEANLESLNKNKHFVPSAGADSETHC

Cytochrome P450 3A5 = Cytochrome P450 3A5 (Homo sapiens, UniProt P20815); assay: Reversible inhibition of human CYP3A5-mediated nifedipine oxidation in human liver microsomes using nifedipine as substrate in presence of NADPH; type: ADME, Microsome
[23] = human, hepatocytes, 4 h, 5 µM

## CCc1c(F)c(F)cc(-c2c(C(=O)O)sc3cc(F)ccc23)c1F
In vitro
  Papp A→B: 11 ×10⁻⁶ cm/s
[1]
  CLH(app): 52 µL/min
physchem
  logD: 2.2

## O=C(O)c1sc2cc(F)ccc2c1-c1cc(F)c(F)cc1F
In vitro
  Papp A→B: 10 ×10⁻⁶ cm/s
[1]
  CLH(app): 23 µL/min
physchem
  logD: 1.3

## COc1c(F)cc(F)c(-c2c(C(=O)O)sc3cc(F)ccc23)c1F
[2]
  Ratio IC50: 7
In vitro
  Papp A→B: 20 ×10⁻⁶ cm/s
[1]
  CLH(app): 21 µL/min
physchem
  logD: 1
[3]
  Ratio IC50: 36

## COc1c(F)c(F)cc(-c2c(C(=O)OC3O[C@H](C(=O)O)[C@@H](O)[C@H](O)[C@H]3O)sc3cc(F)ccc23)c1F (some centres undefined)
[4]
  Retention_time: 17.6 min
[5]
  half-life: ~1.37 h

## COc1c(F)c(F)cc(-c2c(C(=O)O)sc3cc(F)ccc23)c1F
[6]
  Drug metabolism: metabolite_detected
Cytochrome P450 2C9
  IC50: 1 µM
Cytochrome P450 1A2
  IC50: 1.1 µM
Cytochrome P450 3A4 [7]
  IC50: > 100 µM
[8]
  IC50: > 80 µM
Cytochrome P450
  Drug metabolism: metabolite_detected
[9]
  IC50: > 80 µM
[10]
  IC50: 3.3 µM
Cytochrome P450 3A4 [11]
  IC50: > 100 µM
[12]
  IC50: > 80 µM
[13]
  Drug metabolism: metabolite_detected
Cytochrome P450 2D6
  IC50: > 100 µM
[14]
  Drug metabolism: metabolite_detected
[15]
  IC50: 0.041 µM
[16]
  IC50: > 80 µM
Cytochrome P450 2B6
  IC50: 6.7 µM
Cytochrome P450 2C8
  IC50: 23.6 µM
Cytochrome P450 2C19
  IC50: > 100 µM
[17]
  IC50: 0.67 µM
[18]
  Drug metabolism: metabolite_detected
[19]
  IC50: > 80 µM
[20]
  Drug metabolism: metabolite_detected
[21]
  IC50: > 80 µM
[22]
  IC50: 4.5 µM
Cytochrome P450 3A5
  IC50: > 100 µM

## Cc1c(F)c(F)cc(-c2c(C(=O)O)sc3cc(F)ccc23)c1F
In vitro
  Papp A→B: 11 ×10⁻⁶ cm/s
physchem
  logD: 1.6

## O=C(O)c1sc2cc(F)sc2c1Cl
In vitro
  Papp A→B: 14 ×10⁻⁶ cm/s
[23]
  PB: 103 pmol
[1]
  CLH(app): < 2.7 µL/min
physchem
  logD: 0.1

## COc1cccc(-c2c(C(=O)O)sc3cc(F)ccc23)c1F
In vitro
  Papp A→B: 28 ×10⁻⁶ cm/s
[1]
  CLH(app): 23 µL/min
physchem
  logD: 1

## COc1cccc(-c2c(C(=O)O)sc3cc(F)ccc23)c1
In vitro
  Papp A→B: 8.5 ×10⁻⁶ cm/s
[1]
  CLH(app): 32 µL/min
physchem
  logD: 1.4

## O=C(O)c1sc2cc(Cl)ccc2c1Cl
In vitro
  Papp A→B: 31 ×10⁻⁶ cm/s
[1]
  CLH(app): 5.2 µL/min
physchem
  logD: 0.7

## CCOc1c(F)ccc(-c2c(C(=O)O)sc3cc(F)ccc23)c1F
In vitro
  Papp A→B: 16 ×10⁻⁶ cm/s
[1]
  CLH(app): 43 µL/min
physchem
  logD: 1.5

## O=C(O)c1sc2cc(F)ccc2c1Cl
In vitro
  Papp A→B: 30 ×10⁻⁶ cm/s
[1]
  CLH(app): < 2 µL/min
physchem
  logD: 0.5

## COc1c(F)ccc(-c2c(C(=O)O)sc3cc(F)ccc23)c1F
In vitro
  Papp A→B: 26 ×10⁻⁶ cm/s
[1]
  CLH(app): 26 µL/min
physchem
  logD: 1.1

## O=C(O)c1sc2cc(F)ccc2c1-c1ccccc1
[1]
  CLH(app): 31 µL/min
physchem
  logD: 1.1

From ChEMBL document CHEMBL6120980, “Discovery of First Branched-Chain Ketoacid Dehydrogenase Kinase (BDK) Inhibitor Clinical Candidate PF-07328948” (J Med Chem, 2025)
